From patent publication US20220282217A1, “COMPOSITIONS AND METHODS FOR PREPARING T CELL COMPOSITIONS AND USES THEREOF” (priority 2019, published 2022) come the findings set out here.

One experiment has as its target HLA-A03.01 (Homo sapiens, UniProt P04439). Kind of experiment: Class I MHC peptide binding affinity (displacement of radiolabeled reference peptide). The conditions noted are these: allele A03.01; read-out: Observed Affinity (IC50; (nM)).
Experiment [1] addresses HLA-A02.01 (Homo sapiens, UniProt P04439, D140Y/D185E/D98H/E176V/E277Q/G131W/G231S/I119V/I121R/I166T/I218V/L300P/L318F/N151K/N90K/P208A/P217A/Q86G/Q94H/R138H/R169H/T345S). The experiment is described as above. The note with it: allele A02.01; read-out: Observed Affinity (IC50; (nM)). An outline of the steps: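 MHC class I complexes were loaded with a radiolabeled reference peptide, then exposed to test peptides over a range of concentrations for 2 days. Reference peptide still bound to the complexes was quantified by size-exclusion gel filtration.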

Experiment [2] concerns the target T1, HLA-A02.01 (Homo sapiens, UniProt P04439, D140Y/D185E/D98H/E176V/E277Q/G131W/G231S/I119V/I121R/I166T/I218V/N151K/N90K/P208A/P217A/Q86G/Q94H/R138H/R169H).
T1 construct: made in house; host or cells: E. coli
Nature of the experiment: Class I MHC peptide binding stability (pMHC-I dissociation, 125I-labeled light chain). The note with it: allele A02.01.

Where a SMILES comes first, the peptide text is derived from it.

On to `CC(C)C[C@H](NC(=O)[C@@H](NC(=O)[C@H](CO)NC(=O)[C@H](CO)NC(=O)[C@H](CC(C)C)NC(=O)[C@@H](N)CCCNC(=N)N)C(C)C)C(=O)N[C@@H](CCC(N)=O)C(=O)N[C@@H](CCCNC(=N)N)C(=O)N[C@@H](Cc1ccccc1)C(=O)N[C@@H](CCCNC(=N)N)C(=O)O`, for which the IC50 on HLA-A03.01 stood at 12.5 nM.

Take `CSCC[C@H](NC(=O)[C@H](CCC(=O)O)NC(=O)[C@H](CC(C)C)NC(=O)[C@H](CC(C)C)NC(=O)[C@H](CC(C)C)NC(=O)[C@H](CC(=O)O)NC(=O)[C@H](CC(N)=O)NC(=O)[C@H](CC(C)C)NC(=O)[C@@H]1CCCN1)C(=O)O` (H-PLNDLLLEM-OH; N-terminus and C-terminus assumed): the 50% inhibitory concentration (IC50) at HLA-A02.01 [1] was 151 nM. Also, the “Stability (T1/2 (h))” value on HLA-A02.01 [2] is given as 4.2 h.

Take `CSCC[C@H](NC(=O)[C@H](CCC(=O)O)NC(=O)[C@H](CC(C)C)NC(=O)[C@H](CC(C)C)NC(=O)[C@H](CC(C)C)NC(=O)[C@H](CC(=O)O)NC(=O)[C@H](CO)NC(=O)[C@H](CC(C)C)NC(=O)[C@@H]1CCCN1)C(=O)O` (H-PLSDLLLEM-OH; N-terminus and C-terminus assumed): the IC50 at HLA-A02.01 [1] came out at 404 nM. Also, on HLA-A02.01 [2], the “Stability (T1/2 (h))” value worked out at 2.7 h.

On to `CSCC[C@H](NC(=O)[C@H](CCC(=O)O)NC(=O)[C@H](CC(C)C)NC(=O)[C@H](CC(C)C)NC(=O)[C@H](CC(C)C)NC(=O)CNC(=O)[C@H](Cc1ccc(O)cc1)NC(=O)[C@H](CC(C)C)NC(=O)[C@@H]1CCCN1)C(=O)O` (H-PLYGLLLEM-OH; N-terminus and C-terminus assumed), for which the IC50 at HLA-A02.01 [1] turned out to be 640 nM. Moreover, the “Stability (T1/2 (h))” value at HLA-A02.01 [2] is recorded as 0.7 h.

Consider `CC[C@H](C)[C@H](NC(=O)[C@H](Cc1ccc(O)cc1)NC(=O)[C@H](CC(C)C)NC(=O)[C@@H](N)CO)C(=O)N[C@H](C(=O)NCC(=O)N[C@@H](Cc1ccccc1)C(=O)N[C@@H](Cc1ccc(O)cc1)C(=O)NCC(=O)N[C@@H](C)C(=O)O)C(C)C` (H-SLYIVGFYGA-OH; N-terminus and C-terminus assumed), for which, at HLA-A02.01 [1], the IC50 was determined as 390 nM. The “Stability (T1/2 (h))” value on HLA-A02.01 [2] came to 0.4 h.

With `CSCC[C@H](NC(=O)[C@@H](N)CO)C(=O)N[C@@H](CC(C)C)C(=O)N[C@H](C(=O)N[C@@H](CC(=O)O)C(=O)N[C@@H](CO)C(=O)N[C@@H](CC(C)C)C(=O)N[C@@H](Cc1ccccc1)C(=O)N[C@@H](CC(C)C)C(=O)O)[C@@H](C)O` (H-SMLTDSLFL-OH; N-terminus and C-terminus assumed), the half-maximal inhibitory concentration (IC50) on HLA-A02.01 [1] worked out at 31 nM. For the same molecule, the “Stability (T1/2 (h))” value on HLA-A02.01 [2] came out at 9.8 h.

Consider `CC[C@H](C)[C@H](NC(=O)[C@H](Cc1ccc(O)cc1)NC(=O)[C@@H]1CCCN1C(=O)[C@H](CO)NC(=O)[C@H](CC(N)=O)NC(=O)[C@H](CO)NC(=O)[C@H](CCC(=O)O)NC(=O)[C@H](Cc1c[nH]cn1)NC(=O)[C@H](CC(C)C)NC(=O)[C@@H](N)C(C)C)C(=O)O` (H-VLHESNSPYI-OH; N-terminus and C-terminus assumed), for which the half-inhibitory concentration (IC50) at HLA-A02.01 [1] is 131 nM. Also, the “Stability (T1/2 (h))” value on HLA-A02.01 [2] was found to be 1.9 h.

For `CC[C@H](C)[C@H](NC(=O)[C@H](CC(C)C)NC(=O)[C@H](Cc1c[nH]cn1)NC(=O)[C@@H](NC(=O)[C@H](CO)NC(=O)[C@H](CC(C)C)NC(=O)[C@H](CC(C)C)NC(=O)[C@@H](N)C(C)C)C(C)C)C(=O)N[C@H](C(=O)O)C(C)C` (H-VLLSVHLIV-OH; N-terminus and C-terminus assumed), at HLA-A02.01 [1], the IC50 is 72 nM. Further, the “Stability (T1/2 (h))” value at HLA-A02.01 [2] was 11 h.

Regarding `CSCC[C@H](NC(=O)[C@@H](N)C(C)C)C(=O)N[C@@H](C)C(=O)N[C@@H](Cc1ccc(O)cc1)C(=O)N[C@H](C(=O)N[C@@H](CCSC)C(=O)N[C@@H](C)C(=O)NCC(=O)N[C@H](C(=O)O)C(C)C)C(C)C` (H-VMAYVMAGV-OH; N-terminus and C-terminus assumed), the IC50 on HLA-A02.01 [1] was found to be 2 nM. For the same molecule, the “Stability (T1/2 (h))” value at HLA-A02.01 [2] came to 16.5 h.

Take LQMDFLVEIPA: the IC50 at HLA-A02.01 [1] stood at 68 nM. The “Stability (T1/2 (h))” value on HLA-A02.01 [2] worked out at 1.5 h.
